target: T1, human FAAH (Homo sapiens, UniProt O00519); assay: Human FAAH biochemical inhibition assay (AMC arachidonoyl amide fluorescence); conditions: Table 2, human FAAH (no asterisk); read-out: Activity (Ki)
T1 construct: host or cells: COS-7 cells, transient transfection; 13,000 g membrane fraction solubilised in 1% Triton X-100
T1 sequence (O00519 1-579): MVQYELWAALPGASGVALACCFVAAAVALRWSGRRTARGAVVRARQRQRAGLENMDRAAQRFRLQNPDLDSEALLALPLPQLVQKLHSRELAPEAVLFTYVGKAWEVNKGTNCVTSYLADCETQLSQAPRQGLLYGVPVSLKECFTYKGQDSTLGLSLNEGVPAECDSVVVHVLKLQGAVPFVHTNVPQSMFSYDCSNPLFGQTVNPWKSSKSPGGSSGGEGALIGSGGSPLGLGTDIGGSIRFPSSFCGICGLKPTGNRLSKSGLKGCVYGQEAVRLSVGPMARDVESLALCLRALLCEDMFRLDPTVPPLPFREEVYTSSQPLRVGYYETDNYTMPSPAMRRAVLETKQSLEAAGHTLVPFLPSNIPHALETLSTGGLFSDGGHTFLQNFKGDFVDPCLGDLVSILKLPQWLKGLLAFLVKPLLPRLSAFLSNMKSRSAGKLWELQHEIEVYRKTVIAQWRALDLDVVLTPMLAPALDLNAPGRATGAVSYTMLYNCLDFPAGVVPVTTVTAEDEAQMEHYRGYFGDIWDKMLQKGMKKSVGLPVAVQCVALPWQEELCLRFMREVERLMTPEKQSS
Summary of the method: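 Solubilized membrane fraction from COS-7 cells transfected with human FAAH, used at a final 0.05 mg/ml in 50 mM Hepes pH 7.5, 1 mM EDTA, 0.2% Triton X-100. Inhibitor pre-incubated 30 min at room temperature; 20 uM final AMC arachidonoyl amide added, reaction run 4 h at room temperature, fluorescence read.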

Ki [nM] | Compound
> 1000 | CN(C)CCNC(=O)C(Oc1ccc(B(O)O)cc1)c1ccccc1 (stereo not shown) [II-215]
10 to 1000 | O=C(C(Oc1ccc(B(O)O)cc1)c1ccccc1)N1CCCCC1 (stereo not shown) [II-216]
10 to 1000 | O=C(NCc1ccccc1)C(Oc1ccc(B(O)O)cc1)c1ccccc1 (stereo not shown) [II-217]
10 to 1000 | CN(C)C(=O)C(Oc1ccc(B(O)O)cc1)c1ccccc1 (stereo not shown) [II-219]
< 10 | CCCCNC(=O)c1cccc(Oc2ccc(B(O)O)cc2)c1 [II-220]
< 10 | O=C(NCc1ccccc1)c1cccc(Oc2ccc(B(O)O)cc2)c1 [II-221]
> 1000 | O=S(=O)(Cc1ccccc1)c1ccc(B(O)O)cc1 [II-222]
10 to 100 | COC(=O)C(Oc1ccc(B(O)O)cc1)c1ccccc1 (stereo not shown) [II-224]
< 10 | CC(C)NC(=O)c1cccc(Oc2ccc(B(O)O)cc2)c1 [II-225]
10 to 100 | CN(C)C(=O)c1ccc(Oc2ccc(B(O)O)cc2)cc1 [II-227]
10 to 100 | CN(C(=O)c1ccc(B(O)O)cc1)c1ccccc1 [II-230]
< 10 | OB(O)c1ccc(CSc2ccccc2)cc1 [II-231]
10 to 1000 | [O-][S+](Cc1ccc(B(O)O)cc1)c1ccccc1 (stereo not shown) [II-232]
10 to 1000 | CN(C(=O)c1ccccc1)c1ccc(B(O)O)cc1 [II-235]
10 to 100 | COc1c(C)cc(Oc2ccc(B(O)O)cc2)cc1C [II-239]
< 10 | OB(O)c1ccc(COc2ccccc2)cc1 [II-242]
< 10 | Cc1cc(OCc2ccc(B(O)O)cc2)ccc1Cl [II-250]
< 10 | CCOc1ccc(Oc2ccc(B(O)O)cc2)cc1F [II-251]
< 10 | COc1ccc(Oc2ccc(B(O)O)cc2)cc1Cl [II-252]
< 10 | Cc1cc(Oc2ccc(B(O)O)cc2)ccc1F [II-253]
< 10 | Cc1cc(Oc2ccc(B(O)O)cc2)ccc1Cl [II-254]
< 10 | OB(O)c1ccc(Oc2ccc(C(F)(F)F)c(Cl)c2)cc1 [II-256]
< 10 | OB(O)c1ccc(Oc2ccc(Cl)c(C(F)(F)F)c2)cc1 [II-257]
< 10 | OB(O)c1ccc(Oc2ccc(Cl)c(Cl)c2)cc1 [II-259]
< 10 | OB(O)c1ccc(Oc2cc(F)cc(F)c2)cc1 [II-260]

Ki [nM] | Compound
< 10 | COc1ccc(Oc2ccc(B(O)O)cc2)cc1OC [II-262]
< 10 | OB(O)c1ccc(Oc2cc(F)c(F)c(F)c2)cc1 [II-263]
10 to 100 | Cc1cc(COc2ccc(B(O)O)cc2)ccc1F [II-267]
10 to 100 | Cc1cccc(COc2ccc(B(O)O)cc2)c1F [II-268]
10 to 100 | Cc1cccc(COc2ccc(B(O)O)cc2)c1 [II-270]
< 10 | Cc1ccc(Oc2ccc(B(O)O)cc2)cc1F [II-272]
< 10 | CCCOc1ccc(Oc2ccc(B(O)O)cc2)cc1F [II-273]
< 10 | Cc1ccc(Oc2ccc(B(O)O)cc2)cc1[N+](=O)[O-] [II-275]
< 10 | Cc1ccc(Oc2ccc(B(O)O)cc2)cc1C [II-277]
< 10 | COc1cccc(Oc2ccc(B(O)O)cc2)c1 [II-279]
< 10 | Cc1ccc(Oc2ccc(B(O)O)cc2)cc1 [II-280]
< 10 | Cc1cccc(Oc2ccc(B(O)O)cc2)c1 [II-281]
10 to 100 | Cc1cc(B(O)O)cc(C)c1Oc1cccc(F)c1 [II-283]
10 to 100 | CC(C)(C)OC(=O)Nc1cccc(Oc2ccc(B(O)O)cc2)c1 [II-289]
10 to 1000 | OB(O)c1ccc(Oc2ccncc2)cc1 [II-292]
< 10 | OB(O)c1ccc(Oc2cccnc2)cc1 [II-293]
< 10 | CC(=O)c1ccc(-c2ccc(B(O)O)cc2)cc1 [II-295]
10 to 100 | O=C(c1ccccc1)c1ccc(-c2ccc(B(O)O)cc2)cc1 [II-298]
10 to 100 | CC(=O)Oc1ccc(-c2ccc(B(O)O)cc2)cc1 [II-299]
> 1000 | OB(O)c1cnn(Cc2ccccc2)c1 [II-302]
> 1000 | NC(=O)c1cccc(-c2cccc(B(O)O)c2)c1 [II-303]
> 1000 | NC(=O)c1ccc(-c2cccc(B(O)O)c2)cc1 [II-304]
< 10 | OB(O)c1ccc(-c2ccc(F)cc2)cc1F [II-306]
10 to 100 | OB(O)c1cccc(OCc2ccccc2)c1 [II-316]
< 10 | OB(O)c1ccc(Oc2ccccc2)cc1 [II-317]

The next lines start with the molecule.

Compound | Ki [nM]
CCCCNC(=O)C(Oc1ccc(B(O)O)cc1)c1ccccc1 (stereo not shown) [II-218] | 10 to 1000
O=C(c1ccc(B(O)O)cc1)N(Cc1ccccc1)Cc1ccccc1 [II-223] | 10 to 1000
O=C(c1cccc(Oc2ccc(B(O)O)cc2)c1)N1CCCC1 [II-226] | 10 to 100
CN(C)C(=O)c1cccc(Oc2ccc(B(O)O)cc2)c1 [II-228] | 10 to 100
CN(CCc1ccccc1)C(=O)c1ccc(B(O)O)cc1 [II-229] | < 10
[O-][S+](Cc1ccccc1)c1ccc(B(O)O)cc1 (stereo not shown) [II-233] | 10 to 100
OB(O)c1ccc(SCc2ccccc2)cc1 [II-234] | < 10
CC(C)OC(=O)c1cccc(Oc2ccc(B(O)O)cc2)c1 [II-236] | < 10
OB(O)c1ccc(OC2CCCCC2)cc1 [II-237] | < 10
CC(Oc1ccc(B(O)O)cc1)c1ccccc1 (stereo not shown) [II-238] | 10 to 100
COc1cc(Oc2ccc(B(O)O)cc2)cc(OC)c1OC [II-240] | 10 to 100
OB(O)c1ccc(CBr)cc1 [II-241] | > 1000
CCCCOc1cccc(Oc2ccc(B(O)O)cc2)c1 [II-243] | < 10
OB(O)c1ccc(Oc2cccc(OC(F)(F)F)c2)cc1 [II-244] | < 10
CC(C)Oc1cccc(Oc2ccc(B(O)O)cc2)c1 [II-245] | < 10
CC(C)c1cccc(Oc2ccc(B(O)O)cc2)c1 [II-246] | < 10
Cc1cc(COC(=O)c2ccc(B(O)O)cc2)ccc1F [II-247] | 10 to 100
O=C(Cc1ccccc1)Nc1ccc(B(O)O)cc1 [II-248] | 10 to 100
O=C(Nc1ccc(B(O)O)cc1)c1ccccc1 [II-249] | 10 to 1000
COc1ccc(Oc2ccc(B(O)O)cc2)cc1F [II-255] | < 10
OB(O)c1ccc(Oc2cc(Cl)cc(Cl)c2)cc1 [II-258] | 10 to 100
OB(O)c1ccc(Oc2ccc(F)c(F)c2)cc1 [II-261] | < 10

Compound | Ki [nM]
COc1ccc(Oc2ccc(B3OC(C)(C)C(C)(C)O3)cc2)cc1OC [II-264] | < 10
Cc1cc(COc2ccc(B(O)O)cc2F)ccc1F [II-265] | < 10
Cc1ccc(F)c(COc2ccc(B(O)O)cc2)c1Cl [II-266] | 10 to 100
OB(O)c1ccc(OCc2ccc(Cl)cc2)cc1 [II-269] | < 10
CCCCOc1ccc(Oc2ccc(B(O)O)cc2)cc1F [II-271] | < 10
OB(O)c1ccc(Oc2ccc3c(c2)OCO3)cc1 [II-274] | < 10
Cc1ccc(Oc2ccc(B(O)O)cc2)cc1Cl [II-276] | < 10
COc1ccc(Oc2ccc(B(O)O)cc2)cc1 [II-278] | < 10
COc1cc(B(O)O)ccc1Oc1cccc(F)c1 [II-282] | < 10
COC(=O)c1ccc(Oc2ccc(B(O)O)cc2)cc1 [II-284] | < 10
COC(=O)c1cccc(Oc2ccc(B(O)O)cc2)c1 [II-285] | < 10
Nc1ccc(Oc2ccc(B(O)O)cc2)cc1 [II-286] | 10 to 100
Nc1cccc(Oc2ccc(B(O)O)cc2)c1 [II-287] | 10 to 100
CC(C)(C)OC(=O)Nc1ccc(Oc2ccc(B(O)O)cc2)cc1 [II-288] | 10 to 100
OB(O)c1ccc(Oc2ccc(F)cc2)cc1 [II-290] | < 10
OB(O)c1ccc(Oc2cccc(F)c2)cc1 [II-291] | < 10
CC(C)(C)c1ccc(-c2ccc(B(O)O)cc2)cc1 [II-296] | 10 to 1000
CCCc1ccc(-c2ccc(B(O)O)cc2)cc1 [II-297] | 10 to 100
COc1ccc(-c2ccc(B(O)O)cc2)cc1 [II-300] | 10 to 100
OB(O)c1ccc(-c2ccccc2F)cc1F [II-305] | < 10
OB(O)c1ccc(OCc2ccccc2)c(Cl)c1 [II-313] | 10 to 100
OB(O)c1ccc(OCc2ccccc2)cc1 [II-314] | 10 to 100

Reference: patent US8329675B2, “Inhibitors of fatty acid amide hydrolase” (Infinity Pharmaceuticals, Inc., priority 2006, dated 2012)
